Where two headings read alike, the source gives them in different places.
How the values were obtained:
[1] = tested on: panel of 60 human cancer cell lines; assay: NCI DTP in vitro anticancer screen, panel of 60 human cancer cell lines; type: cell-based; settings: average over human tumour cell lines of the NCI panel (FIG. 1); read-out: average GI50 (growth inhibition by 50%)
Method: For example, the following methodology, which is currently employed by the NCI, can be used to assess the GI50 of a candidate compound of Formula I in the selected cancer cell lines. Briefly, cell suspensions are diluted (5000-40,000 cells per well) and 100 μL of the diluted cell suspension is added into 96-well microtiter plates. Inoculates are allowed a preincubation period of 24 h at 37° C. for stabilization. Dilutions at twice the intended test concentration of the candidate compound are added at time zero in 100 μL aliquots to the microtiter plate wells. Test compounds are generally evaluated at five 10-fold dilutions. In routine testing, the highest well concentration is usually 10E-4 M, but this may be adjusted depending on the compound being tested. The cells are incubated with the test compound for 48 h in 5% CO2 atmosphere and 100% humidity. The cells are then assayed by using the sulforhodamine B assay (see, for example, Skehan, P., et al. (1990) JNCI, J. Natl. Cancer Inst. 82, 1107-1112; and Chen, S. F., et al. (1990) Proc. Am. Assoc. Cancer Res. 31, A2644) employing a plate reader which can be used to read the optical densities.
Compounds 2 and 3 were evaluated for their antiproliferative effects in a panel of 60 human cancer cell lines as part of the in vitro anticancer screening services provided by the DTP (Developmental Therapeutics Program) of the US National Cancer Institute (NCI).
Analysis of the effects of compounds of Formula I on in vitro and in vivo cell growth inhibition were performed utilizing the methods as described in the preceding Examples. As shown in Example 12, cell growth inhibition by the parental compound 3 was screened by National Cancer Institute 60-cell line assay and leukemia, non-small cell cancer, colon cancer, renal cancer and prostate cancer panels were especially sensitive to compound 3.

[2] = tested on: human colon carcinoma HT-29 cells; assay: XTT cell proliferation assay, HT-29; type: cell-based; settings: Homo sapiens, HT-29, XTT, read-out: IC50
Method in brief: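 HT-29 cells in McCoy's 5A with 10% FBS, 37° C., 5% CO2, exposed to varying compound concentrations for 6-7 days. Viable cells quantified by XTT reduction to formazan; growth inhibition expressed as IC50 (μM).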

[3] = Solubility in water; type: physicochemical; settings: HCl salt of compound 2
Method: A solution of 0.200 g of compound 2 (0.483 mmol) in DMF was treated with HCL(g) until no more precipitation was observed. The solid was then filtered, washed with dichloromethane and hexanes, dried in vacuum.

IC50 ([2]; 6-7 days, Table 3): 700 nM | IC50 ([2]; as Example 13, Table 7): 1.5 µg/mL | solubility in water [3]: soluble in water
SMILES: Brc1ccc2[nH]cc(-c3nc4c5cccnc5c5ncccc5c4[nH]3)c2c1 [Compound 2]
GI50 [1]: < 2000 nM

— patent US8148392B2, “2-indolyl imidazo [4,5-d] phenanthroline derivatives and their use in the treatment of cancer” (Lorus Therapeutics Inc., priority 2005, dated 2012)
